Experimental data from patent publication US20030186887A1, “Compounds for detection of infection by chlamydophila abortus” (priority 2000, published 2003).
“And” between values parts separate entries of the source, which are not always exact repeats. Equal entries are not always repeated. Ends that are not written are not given here. * marks the point of attachment. Biotin = O=C1N[C@H]2[C@H](CS[C@H]2CCCCC(=O)*)N1

Columns and labels:
[1] = system: sera from ewes known not to have been infected with C. abortus; SPF lamb antisera; assay: ELISA, specificity of peptides with sera from uninfected ewes and SPF lamb antisera (first Table 4); type: binding, sheep; design: reactivity with serum (quantity not given): unit not given here
Procedure: (§1) Application of the peptide mixture is performed as follows:
(§2) Two dilutions of standard serum are used.
Specificities of Peptides 2-9,2-10, 1B, 1A/1A and 4B/4B as tested with sera from ewes known not to have been infected with C. abortus, and which had shown positive reactivity in previous tests with various forms of VS 1 and VS2.

antibodies to C. abortus = assay: ELISA, serological reactivity of biotinylated peptides against serum dilutions (Tables 1 and 2); type: binding, sheep
Procedure: as §1, §2
The data illustrate that the length of compound has a major impact on serological reactivity.
Thus, substitutions within the core epitopes described in this invention are possible without too much loss in compound serological reactivity.

Substance	Net Optical Density (antibodies to C. abortus; serum dilution 1/100)	Net Optical Density (antibodies to C. abortus; serum dilution 1/200)	Net Optical Density (antibodies to C. abortus; serum dilution 1/400)	Net Optical Density (antibodies to C. abortus; serum dilution 1/800)	Net Optical Density (antibodies to C. abortus; serum dilution 1/1600)	Net Optical Density (antibodies to C. abortus; serum dilution 1/3200)	Net Optical Density (antibodies to C. abortus; serum dilution 1/6400)	also measured
ATALDTSNKFATALDTSNKFA (ATALDTSNKFATALDTSNKFA) [Compound 4B/4B]	–	–	–	–	–	–	–	reactivity with serum (quantity not given) ([1]; SPF lamb antiserum 2406/2 C.ab, vaccinated with 28/68 (C. abortus)): OVER; reactivity with serum (quantity not given) ([1]; SPF lamb antiserum 2407/2 W73, vaccinated with W73 (C. pecorum)): 0.8; reactivity with serum (quantity not given) ([1]; SPF lamb antiserum F1/2 S45, vaccinated with S45 (C. suis)): 1.2; reactivity with serum (quantity not given) ([1]; SPF lamb antiserum F6/2 Cap.ab, vaccinated with Cap. abortion 15 (C. abortus)): 0.7; reactivity with serum (quantity not given) ([1]; SPF lamb antiserum F8/2 P787, vaccinated with P787 (C. pecorum)): 0.4; reactivity with serum (quantity not given) ([1]; SPF lamb serum 2397/1, pre-vaccination): 0.8; reactivity with serum (quantity not given) ([1]; SPF lamb serum F1/1, pre-vaccination): 0.5; reactivity with serum (quantity not given) ([1]; serum of animal no. 3178): 0.6; reactivity with serum (quantity not given) ([1]; serum of animal no. 3201): 1.7; reactivity with serum (quantity not given) ([1]; serum of animal no. A2213): OVER; reactivity with serum (quantity not given) ([1]; serum of animal no. A2261): 0.4; reactivity with serum (quantity not given) ([1]; serum of animal no. B2123): 0.4; reactivity with serum (quantity not given) ([1]; serum of animal no. X2895): 0.5; reactivity with serum (quantity not given) ([1]; serum of animal no. X2899): 0.4; reactivity with serum (quantity not given) ([1]; serum of animal no. Z148): 0.7; reactivity with serum (quantity not given) ([1]; serum of animal no. Z2618): 0.55; reactivity with serum (quantity not given) ([1]; serum of animal no. Z2646): 1.0; reactivity with serum (quantity not given) ([1]; serum of animal no. Z2739): 0.4
Biotin-CLIGVKGSSAAD [Compound 2-4]	2.173	1.241	0.572	0.278	0.133	0.064	0.040	–
Biotin-KGSSIAAD [Compound 2-1]	0.000	0.000	0.000	0.000	0.000	0.000	0.000	reactivity (in words) (antibodies to C. abortus; studies of Table 1): no reactivity whatsoever
Biotin-KKKKKGLIGVKGSS L AAD [Compound 2-11]	2.008	1.230	0.637	0.299	0.133	0.053	0.026	effect of substituting isoleucine with leucine within Epitope 2 on reactivity (antibodies to C. abortus; 2-9 compared with 2-3, 2-11 compared with 2-5): small decrease in reactivity
Biotin-KKKKKGLIGVKGSSIAAD [Compound 2-5]	2.344	1/468 and 1.468	0.771	0.358	0.156	0.066	0.036	–
Biotin-KKKKKKGSSIAAD [Compound 2-2]	1.515	0.786	0.385	0.174	0.068	0.046	0.024	reactivity relative to that displayed by Compound 2-3 (antibodies to C. abortus; studies of Table 1): approximately 70%
